Each block holds one compound with its values, some of them ahead of it.
Legend:
Type in all cases: cell-based
[1] = target: T1, Q1/E3 (KCNQ1/KCNE3 complex) (Homo sapiens, UniProt P51787); assay: two-electrode voltage clamp, Xenopus oocytes; tail-current Boltzmann fit; details: activator (raises current, no V1/2 shift); 10 mM; KD50 (50 mM K+), pH 7.6
T1 construct: with Potassium voltage-gated channel subfamily E member 3
T1 sequence (P51787 1-676): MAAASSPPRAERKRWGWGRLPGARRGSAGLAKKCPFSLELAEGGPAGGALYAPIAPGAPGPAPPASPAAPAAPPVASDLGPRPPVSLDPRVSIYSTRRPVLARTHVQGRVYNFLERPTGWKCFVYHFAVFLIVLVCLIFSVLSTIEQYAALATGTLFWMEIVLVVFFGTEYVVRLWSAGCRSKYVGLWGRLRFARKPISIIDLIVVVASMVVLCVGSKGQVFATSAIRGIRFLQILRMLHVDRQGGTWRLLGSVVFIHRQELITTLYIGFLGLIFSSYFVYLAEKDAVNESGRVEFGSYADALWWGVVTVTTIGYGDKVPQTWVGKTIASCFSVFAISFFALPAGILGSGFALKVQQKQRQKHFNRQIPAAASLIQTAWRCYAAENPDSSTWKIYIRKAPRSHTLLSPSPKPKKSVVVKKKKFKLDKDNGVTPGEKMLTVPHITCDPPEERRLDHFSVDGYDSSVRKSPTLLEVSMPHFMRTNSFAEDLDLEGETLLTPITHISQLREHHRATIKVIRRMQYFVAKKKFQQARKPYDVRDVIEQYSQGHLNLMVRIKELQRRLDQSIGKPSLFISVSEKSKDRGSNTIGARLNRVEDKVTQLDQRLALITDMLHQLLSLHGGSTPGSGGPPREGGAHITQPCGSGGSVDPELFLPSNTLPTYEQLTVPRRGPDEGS
T1 sequence (Q9Y6H6 1-103 partner): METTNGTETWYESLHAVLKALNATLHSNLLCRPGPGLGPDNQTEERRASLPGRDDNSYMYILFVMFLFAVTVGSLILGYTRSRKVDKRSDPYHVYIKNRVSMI
Excerpt: two-electrode voltage clamp, Xenopus oocytes; tail-current Boltzmann fit on Q1/E3 (KCNQ1/KCNE3 complex)

[2] = target: T2, Q2/Q3 (KCNQ2/3) (Homo sapiens, UniProt O43525+O43526); assay: as above; details: activator; 10 mM; ND96, pH 7.6
T2 construct: heterotetramer; equal mRNA amounts of both subunits in Xenopus laevis oocytes
Excerpt: two-electrode voltage clamp, Xenopus oocytes; tail-current Boltzmann fit on Q2/Q3 (KCNQ2/3)

[3] = target: T3, Q1/E1 (KCNQ1/KCNE1 complex) (Homo sapiens, UniProt P51787); assay: as above; details: reversible activator; 10 mM; ND96, pH 7.6
T3 construct: with Potassium voltage-gated channel subfamily E member 1
Excerpt: two-electrode voltage clamp, Xenopus oocytes; tail-current Boltzmann fit on Q1/E1 (KCNQ1/KCNE1 complex)

[4] = target: T3, Q1/E1 (KCNQ1/KCNE1 complex); assay: two-electrode voltage clamp, Xenopus oocytes; details: inhibitor, ND96, pH 7.6, +40 mV, 2 s pulse
[5] = target: T2, Q2/Q3 (KCNQ2/3); assay: two-electrode voltage clamp, Xenopus oocytes; delta gmax on washout, hyperbola fit; details: read-out: Phenylboronic Acid (PBA) / EC50
Excerpt: two-electrode voltage clamp, Xenopus oocytes; delta gmax on washout, hyperbola fit on Q2/Q3 (KCNQ2/3)

[6] = target: T4, KCNQ4 (Q4) (Homo sapiens, UniProt P56696); assay: as above; details: read-out: Phenylboronic Acid (PBA) / EC50
T4 construct: homotetramer expressed in Xenopus laevis oocytes
T4 sequence (P56696 1-695): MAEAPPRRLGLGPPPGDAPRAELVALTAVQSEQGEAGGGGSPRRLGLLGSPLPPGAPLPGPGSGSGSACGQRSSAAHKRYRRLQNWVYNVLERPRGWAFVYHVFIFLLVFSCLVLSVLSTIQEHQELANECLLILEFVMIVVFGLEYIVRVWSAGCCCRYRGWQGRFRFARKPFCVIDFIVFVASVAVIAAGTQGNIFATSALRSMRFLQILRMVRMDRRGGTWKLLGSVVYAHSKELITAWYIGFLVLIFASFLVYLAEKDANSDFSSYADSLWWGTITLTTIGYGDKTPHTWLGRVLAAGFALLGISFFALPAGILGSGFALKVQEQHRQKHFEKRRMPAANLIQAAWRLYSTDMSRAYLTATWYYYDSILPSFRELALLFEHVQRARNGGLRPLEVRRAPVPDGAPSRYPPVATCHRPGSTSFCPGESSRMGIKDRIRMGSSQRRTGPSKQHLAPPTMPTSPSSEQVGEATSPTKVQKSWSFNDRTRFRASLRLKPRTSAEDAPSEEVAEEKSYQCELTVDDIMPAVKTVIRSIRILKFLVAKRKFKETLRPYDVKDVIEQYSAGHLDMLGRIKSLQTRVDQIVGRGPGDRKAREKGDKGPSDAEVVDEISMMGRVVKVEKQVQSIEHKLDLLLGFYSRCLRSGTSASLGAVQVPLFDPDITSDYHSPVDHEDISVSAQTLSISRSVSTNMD
Excerpt: two-electrode voltage clamp, Xenopus oocytes; delta gmax on washout, hyperbola fit on KCNQ4 (Q4)

T2 sequence (O43526 whole entry): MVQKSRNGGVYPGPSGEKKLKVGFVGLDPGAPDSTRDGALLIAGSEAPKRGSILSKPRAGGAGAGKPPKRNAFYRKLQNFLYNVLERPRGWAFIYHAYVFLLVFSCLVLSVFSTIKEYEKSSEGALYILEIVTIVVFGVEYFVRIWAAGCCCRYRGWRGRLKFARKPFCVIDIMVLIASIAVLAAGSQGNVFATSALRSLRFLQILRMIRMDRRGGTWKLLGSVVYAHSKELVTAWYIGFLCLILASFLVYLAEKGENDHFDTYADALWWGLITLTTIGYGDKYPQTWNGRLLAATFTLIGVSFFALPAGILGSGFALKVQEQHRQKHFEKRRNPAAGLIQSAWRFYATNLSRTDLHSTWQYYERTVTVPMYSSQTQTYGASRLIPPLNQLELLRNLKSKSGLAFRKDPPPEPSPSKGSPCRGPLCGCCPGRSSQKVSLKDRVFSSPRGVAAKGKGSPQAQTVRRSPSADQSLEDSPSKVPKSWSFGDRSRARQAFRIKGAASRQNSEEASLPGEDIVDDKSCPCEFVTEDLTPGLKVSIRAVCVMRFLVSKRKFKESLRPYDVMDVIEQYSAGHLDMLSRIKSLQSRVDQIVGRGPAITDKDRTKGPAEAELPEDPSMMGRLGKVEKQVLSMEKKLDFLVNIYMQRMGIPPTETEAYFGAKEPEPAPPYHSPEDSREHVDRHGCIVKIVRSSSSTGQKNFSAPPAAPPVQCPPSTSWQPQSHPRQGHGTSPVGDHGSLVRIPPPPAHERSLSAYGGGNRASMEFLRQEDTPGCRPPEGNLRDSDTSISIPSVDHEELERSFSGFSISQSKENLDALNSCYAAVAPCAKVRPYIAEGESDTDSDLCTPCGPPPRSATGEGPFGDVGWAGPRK
T2 sequence (O43525 whole entry): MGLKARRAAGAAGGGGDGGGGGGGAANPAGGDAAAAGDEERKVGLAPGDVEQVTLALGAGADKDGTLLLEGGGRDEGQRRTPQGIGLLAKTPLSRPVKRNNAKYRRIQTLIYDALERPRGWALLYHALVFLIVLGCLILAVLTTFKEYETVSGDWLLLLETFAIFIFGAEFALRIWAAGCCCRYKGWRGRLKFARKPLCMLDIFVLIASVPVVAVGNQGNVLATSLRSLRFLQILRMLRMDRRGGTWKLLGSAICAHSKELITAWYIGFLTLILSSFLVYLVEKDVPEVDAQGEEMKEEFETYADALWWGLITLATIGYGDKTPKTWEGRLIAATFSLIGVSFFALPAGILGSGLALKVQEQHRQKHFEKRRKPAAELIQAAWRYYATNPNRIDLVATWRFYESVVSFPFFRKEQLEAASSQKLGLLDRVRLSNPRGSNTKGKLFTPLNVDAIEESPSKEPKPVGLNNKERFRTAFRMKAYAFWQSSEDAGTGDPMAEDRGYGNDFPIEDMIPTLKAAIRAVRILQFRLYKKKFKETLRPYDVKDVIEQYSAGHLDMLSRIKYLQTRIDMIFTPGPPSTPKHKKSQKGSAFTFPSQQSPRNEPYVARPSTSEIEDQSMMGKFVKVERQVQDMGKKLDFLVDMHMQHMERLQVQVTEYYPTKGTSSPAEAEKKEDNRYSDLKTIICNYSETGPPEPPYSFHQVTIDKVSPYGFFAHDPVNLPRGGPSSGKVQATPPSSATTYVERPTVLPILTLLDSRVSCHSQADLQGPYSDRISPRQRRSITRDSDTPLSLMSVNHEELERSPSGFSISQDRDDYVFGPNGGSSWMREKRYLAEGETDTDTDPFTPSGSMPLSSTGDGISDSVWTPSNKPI

Phenylboronic Acid (PBA) / Δ V1/2 (mV) [1]: 2.7±4.9 mV | Phenylboronic Acid (PBA) / Δ V1/2 (mV) [2]: −5.9±2.9 mV | Phenylboronic Acid (PBA) / Δ V1/2 (mV) [3]: −4.4±2.4 mV
SMILES: OCc1ccccc1 [benzyl alcohol]

SMILES: O=C(O)c1ccccc1 [benzoic acid]
reversible inhibition at 10 mM [4]: Perfusion of benzoic acid reversibly inhibited Q1/E1

EC50 [5]: 3.7 ± 1.4 mM | EC50 [6]: > 10 mM
SMILES: OB(O)c1ccccc1 [PBA, phenylboronic acid]

Source: paper PMC2617778, “Discovery of a Novel Activator of KCNQ1-KCNE1 K^+ Channel Complexes” (PLoS ONE, 2009)
